pEC50: −log10 of the molar value.
Legend:
[1] = system: calvarial bone defect; experiment: Rat calvarial defect model (bone formation); assay type: in vivo; conditions: female Sprague Dawley rats, in calcium phosphate cement/demineralized bone matrix, 3 μg/ml to 3 mg/ml, eight weeks; data in FIG. 1
[2] = target: T1, rat EP4 receptor (Rattus norvegicus, UniProt P43114); experiment: STEP plate cAMP level assay for EP4 agonist; assay type: cell-based; conditions: cAMP readout, read-out: STEP cell functional assay EC50s cAMP/EP4
T1 construct: host or cells: cells seeded on the STEP plate
Description: Functional Cellular Assays (STEP Plate Format)
Procedure of cAMP Assay for EP2/EP4 Agonist
3. […] In addition each concentration had triplicates.
6. Aspirate the supernatant.

T1 sequence (P43114 whole entry): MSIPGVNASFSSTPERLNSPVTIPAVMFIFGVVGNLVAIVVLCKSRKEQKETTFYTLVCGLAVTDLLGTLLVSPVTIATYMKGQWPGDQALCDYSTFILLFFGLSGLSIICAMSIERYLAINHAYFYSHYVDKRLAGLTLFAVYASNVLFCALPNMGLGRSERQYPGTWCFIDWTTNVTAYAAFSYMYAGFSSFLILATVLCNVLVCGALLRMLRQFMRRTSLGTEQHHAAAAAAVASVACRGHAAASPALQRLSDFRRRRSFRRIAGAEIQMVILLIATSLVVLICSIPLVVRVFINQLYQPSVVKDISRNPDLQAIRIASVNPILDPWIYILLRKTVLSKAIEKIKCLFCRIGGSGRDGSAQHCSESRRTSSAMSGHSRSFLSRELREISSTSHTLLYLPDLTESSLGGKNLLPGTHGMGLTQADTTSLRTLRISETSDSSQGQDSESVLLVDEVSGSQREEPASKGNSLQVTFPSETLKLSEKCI

| pEC50 [2] | SMILES | Healing of a calvarial bone defect (degree of repair) [1] |
| --- | --- | --- |
|  | CCC#CC[C@H](C)[C@H](O)/C=C/[C@H]1CC(F)(F)C(=O)N1CCCCCCC(=O)O [Example 2C, 7-((R)-3,3-difluoro-5-((3S,4S,E)-3-hydroxy-4-methylnon-1-en-6-yn-1-yl)-2-oxopyrrolidin-1-yl)heptanoic acid] | Accelerated Healing |
| 7.29 | COC(=O)c1ccc(CCCN2C(=O)C(F)(F)C[C@@H]2/C=C/[C@@H](O)[C@H](C)CCCc2ccccc2)s1 [Example 28E, methyl 5-(3-((R)-3,3-difluoro-5-((3S,4R,E)-3-hydroxy-4-methyl-7-phenylhept-1-en-1-yl)-2-oxopyrrolidin-1-yl)propyl)thiophene-2-carboxylate] |  |
